In publication PMC10518255, “A first-in-class pan-lysyl oxidase inhibitor impairs stromal remodeling and enhances gemcitabine response and survival in pancreatic cancer” (Nature Cancer, 2023):
Where “and” joins values, the source holds several entries; their conditions need not be identical. Identical values can stand only once.

How the values were obtained:
[1] = tested on: lysyl oxidase family members in KPC CCs; experiment: qRT-PCR of lysyl oxidase family members after treatment (Extended Data Figs. 2d, 3h); type: cell-based, mouse; parameters: qRT-PCR LOX (Ct) / qRT-PCR LOX ΔCt / qRT-PCR LOX ΔΔCt KPC CC / qRT-PCR LOXL1 ΔCt / qRT-PCR LOXL1 ΔΔCt KPC CC / qRT-PCR LOXL2 ΔCt / qRT-PCR LOXL2 ΔΔCt KPC CC / qRT-PCR LOXL3 ΔCt / qRT-PCR LOXL3 ΔΔCt KPC CC / qRT-PCR LOXL4 ΔCt / qRT-PCR LOXL4 ΔΔCt KPC CC: dose or concentration left out as unconfirmed;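 for qRT-PCR LOX ΔCt: 30 µM PXS-5505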;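 for qRT-PCR LOXL2 ΔCt: 30 µM PXS-5505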;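 for qRT-PCR LOXL3 ΔCt: 30 µM PXS-5505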;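 for qRT-PCR LOXL4 ΔCt: 30 µM PXS-5505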
Protocol: A total of 5 × 10^5 KPC CCs or CAFs were seeded and collected after incubation in 21% O2/5% CO2 for 72 h. RNA was isolated using the RNeasy mini kit (QIAGEN) according to the manufacturer’s instructions. Then, 1 μg of RNA was reverse transcribed using the Transcriptor First Strand cDNA Synthesis kit (Roche LifeScience) with anchored-oligo(dT)18 primers or the QuantiTect Reverse Transcription kit (QIAGEN). Real-time PCR was performed using the Roche LightCycler480 (Roche LifeScience) or QuantStudio 7 (Thermo Fisher). The following probe sets from Applied Biosystems, were used: LOX, Mm00495386; LOXL1, Mm01145738; LOXL2, Mm00804740; LOXL3, Mm01184867; LOXL4, Mm00446385; and GAPDH, Mm99999915. Primers and Roche Universal Probe Library probes used for RT–qPCR are described in Supplementary Table 4. Relative mRNA expression levels for each transcript of interest were normalized to GAPDH or ACTB (as indicated) and quantified using the comparative double ΔCt method (unless stated otherwise) for each biological replicate.
Extended Data Fig. 2 Characterization of cells derived from the KPC autochthonous model. a. Immunofluorescence staining of KPC CCs and KPC CAFs for the pancreatic epithelial cell marker CDH1 (green), DAPI (blue) and for the CAF marker α-SMA (yellow), DAPI (blue). Representative images from n = 3 biological independent samples. Scale bar = 30 μm. b. RNAseq reads for CAF and epithelial cell makers in KPC CAFs n = 3 biological independent samples. […] Data is presented as mean values ± SEM. […] Data presented as mean values +/− SD. […] Source data
Data presented as mean values +/− SD. f. […] Data presented as mean values +/− SD. […] Data presented as mean values +/− SD. […] Data presented as mean values +/− SD. Ordinary one-way ANOVA for multiple comparison test performed. Source data

TKCC10 human PDX tumors = experiment: TKCC10 human model, bulk modulus by unconfined compression (Extended Data Fig. 5e); type: in vivo, mouse; parameters: key to Bulk modulus (stiffness) by unconfined compression testing: bulk elastic modulus in kPa; conditions: for Bulk modulus (stiffness) by unconfined compression testing: Extended Data 5E, endpoint human PDX tumours, individual animals
Protocol: Unconfined compression of in vivo tissue samples was carried out on 2–3-mm cross-sectional slices using a TA Instruments Dynamic Hybrid Rheometer (DHR-3, TA Instruments). Tissue samples were placed between upper and lower parallel plate geometries. A constant linear compressive rate of 5 µm s^−1 was applied to the samples and axial force (N) and gap (mm) were collected every 0.01 s. Data were processed and a stress–strain curve for each replicate was obtained. Bulk elastic modulus (kPa) was obtained as the gradient of the linear region of the stress–strain curve corrected for cross-sectional area of sample. Data points represent individual biological replicates.
Subcutaneous PDX studies were performed by implanting early passage PDX pieces (~4 mm^3) or TKCC10 CCs (1.5 × 10^6 cells per mouse in 100 μl PBS/Matrigel 1:1) into female (PDX) or male (TKCC10) 8-week-old immunocompromised nude Balb/c-Fox1nuAusb mice subcutaneously on the left flank. For the duration of the study, mice were kept in conventional caging with environmental enrichment, access to standard chow, water ad libitum and 12-h light–dark cycle at ambient temperature and humidity. […] Tumor size was monitored every second day by calipers. Tumor volume was calculated using the formula (length × width^2)/2. […]
Extended Data Fig. 5 PXS-5505 in combination with gemcitabine in vivo. a. […] Signal is defined as the enzyme activity in the aorta, while noise is measured in the presence of a high concentration (300 µM) BAPN to abolish any lysyl oxidase family activity. […] FITC-dextran (molecular weight: 10 kDa) signal quantification from KPC tumor end point from each treatment group (vehicle n = 3 biologically independent animals, PXS-5505 n = 5 biologically independent animals, Gem n = 5 biologically independent animals, PXS-5505 + Gem n = 5 biologically independent animals). […] P-values determined by Welchs t-test. […] Quantification of red birefringent (mature) collagen fibers from human PDXs at end point after 3 cycles of treatment, treated as indicated. […] P values determined by Welchs t-test. g. […]

[2] = KPC CCs, 50 nM gemcitabine, 48 hours, per replicate
[3] = KPC CCs, 50 nM gemcitabine, 48 hours, vs GAPDH, per replicate
[4] = KPC CC, 48 hour treatment, 30 M PXS-5505, replicates
[5] = KPC CC, 48 hour treatment, PXS-5505, replicates
[6] = KPC CC, 48 hour treatment, PXS-5505, vs GAPDH, replicates

`Nc1ccn([C@@H]2O[C@H](CO)[C@@H](O)C2(F)F)c(=O)n1` [Gem, gemcitabine] was tested. Which “LOX ΔΔCt CC” value [1, 2] did it give?
Its value is 0.5966 and 0.4518 and 0.8445.

What about the “LOXL1 ΔΔCt CC” value [1, 2] of the same molecule?
Its value is 2.011 and 0.7673 and 0.4707.

And the “LOXL2 ΔΔCt CC” value [1, 2]?
Its value is 1.535 and 1.563 and 1.2.

And the “LOXL3 ΔΔCt CC” value [1, 2]?
Its value is 1.643 and 1.594 and 1.375.

And the “LOXL4 ΔΔCt CC” value [1, 2]?
The value was 0.7511 and 0.9095 and 0.7486.

What about the “LOX ΔCt” value [1, 3] of the same molecule?
The value was 14.7188 and 15.1199 and 14.2176.

And the “LOXL1 ΔCt” value [1, 3]?
The value was 12.5081 and 13.8984 and 14.6034.

And the “LOXL2 ΔCt” value [1, 3]?
The value was 4.459 and 4.433 and 4.815.

What about the “LOXL3 ΔCt” value [1, 3] of the same molecule?
The value was 5.8941 and 5.937 and 6.151.

And the “LOXL4 ΔCt” value [1, 3]?
The value was 8.9744 and 8.6983 and 8.979.

And the “expression of lysyl oxidase family members” value ([1]; KPC cancer cells, 50 nM gemcitabine for 48 hours)?
The value was “not observed”.

And the “Bulk modulus (stiffness) by unconfined compression testing” value (TKCC10 human PDX tumors)?
The value was 110.51 and 99.1 and 103.39 and 48.75 and 58.11.

What about the tumor bulk stiffness (TKCC10 human PDX tumors; TKCC10 model, three rounds of therapy) of the same molecule?
The tumor bulk stiffness was “significant increase in tumor bulk stiffness”.

`Cl.Cl.NC/C=C(\F)CS(=O)(=O)c1cccc2cccnc12.O` [PXS-5505, (Z)-3-fluoro-4-(quinolin-8-ylsulfonyl)but-2-en-1-amine dihydrochloride monohydrate] was tested. Which “qRT-PCR LOXL1 (Ct)” value [1, 4] did it give?
The value was 32.0868 and 30.4856 and 33.7318.

And the “qRT-PCR LOXL2 (Ct)” value [1, 4]?
The value was 25.1478 and 23.1006 and 27.5044.

And the “qRT-PCR LOXL3 (Ct)” value [1, 4]?
The value was 25.6118 and 24.0525 and 29.0502.

And the “qRT-PCR LOXL4 (Ct)” value [1, 4]?
Its value is 26.1005 and 25.1765 and 30.4751.

What about the “qRT-PCR LOX (Ct)” value [1, 5] of the same molecule?
Its value is 32.5405 and 35.0722 and 35.237.

What about the “qRT-PCR LOX ΔΔCt KPC CC” value [1, 5] of the same molecule?
The value was 3.619 and 0.48 and 10.8682.

What about the “qRT-PCR LOXL1 ΔΔCt KPC CC” value [1, 5] of the same molecule?
Its value is 0.8362 and 0.4014 and 1.074.

And the “qRT-PCR LOXL2 ΔΔCt KPC CC” value [1, 5]?
Its value is 0.7412 and 0.4847 and 0.5812.

And the “qRT-PCR LOXL3 ΔΔCt KPC CC” value [1, 5]?
Its value is 2.035 and 0.9488 and 0.7538.

What about the “qRT-PCR LOX ΔCt” value [1, 6] of the same molecule?
Its value is 15.5819 and 18.4964 and 13.9954.

And the “qRT-PCR LOXL1 ΔCt” value [1, 6]?
Its value is 12.8511 and 13.9099 and 12.4902.

What about the “qRT-PCR LOXL2 ΔCt” value [1, 6] of the same molecule?
The value was 5.9121 and 6.525 and 6.263.

And the “qRT-PCR LOXL3 ΔCt” value [1, 6]?
Its value is 6.376 and 7.477 and 7.8086.

What about the “qRT-PCR LOXL4 ΔΔCt KPC CC” value ([1]; KPC CC, 48 hour treatment, replicates) of the same molecule?
The value was 3.255 and 0.9772 and 0.6302.

And the “qRT-PCR LOXL4 ΔCt” value ([1]; KPC CC, 48 hour treatment, vs GAPDH, replicates)?
Its value is 6.8648 and 8.601 and 9.233.

What about the “transcription of lysyl oxidase family members” value ([1]; KPC CCs, PXS-5505 up to 300 µM) of the same molecule?
Its value is “does not significantly alter transcription”.

And the “Bulk modulus (stiffness) by unconfined compression testing” value (TKCC10 human PDX tumors)?
The value was 8.16 and 16.78 and 14.19 and 5.55 and 12.49.
